Consider one compound from US20180135134A1, “TARGETED SELECTION OF PATIENTS FOR TREATMENT WITH CORTISTATIN DERIVATIVES” (President and Fellows of Harvard College, priority 2015, published 2018).

What is called GI50 is the concentration that inhibits growth by half. A lower GI50 goes with greater sensitivity of the cells.

In test [1] the test system is RUNX1 target gene signatures. Put plainly: Gene expression and gene set enrichment analysis (GSEA) in SET-2 cells. Format: cell-based, human. To be noted: 4 h 25 nM CA. The procedure: Leukemia cells were plated (12-well) in triplicate at 500,000-800,000 cells per ml and incubated in the presence of vehicle (0.1% DMSO) or CA (25 nM 3 h for K562, MOLM-14 and MV4;11; 10 nM 24 h for MOLM-14; 25 nM 4 h for SET-2, n=3 for each cell line). Cells were then washed twice with cold PBS, and snap frozen. RNA was isolated (RNeasy Plus Microkit, Qiagen or TRIzol, Life Technologies), processed, and, for K562, MOLM-14 and MV4;11, hybridized to the Human U133 Plus 2.0 microarray (Affymetrix). Microarrays were processed with Bioconductor packages affyQCReport for quality control and affy for background correction, summarization, and normalization using rma. […] SET-2 and HCT 116 gene expression was measured by RNA-seq. […] Reads were aligned in two passes, first with rnaStar (v.2.3.0e) then with BWA (v.0.7.5a) for remaining unmapped reads, both using default parameters. Mapped reads were merged and counted using HTSeq (v.0.5.3p3) with -s yes -m intersection-strict. […] Samples were run in a single lane on an Illumina HiSEQ 2000 sequencer with a single read flow cell using 1×50-bp reads and a 6-cycle index read. Reads were mapped to the hgl9 reference genome using Tophat2 v.2.0.6 with custom settings including the setting of—library-type fr—firstrand to appropriately account for the stranded nature of the protocol. […]

Test [2] has as its system disseminated MV4;11-mCLP leukemia. The experiment in a line: MV4;11 xenograft model in NSG mice. It is filed as in vivo, mouse. The procedure: The MV4;11 xenograft model was performed as previously described (Etchin, J. et al. Antileukemic activity of nuclear export inhibitors that spare normal hematopoietic cells. Leukemia 27, 66-74 (2013)). Two-million MV4; 11-mCLP cells were injected into the tail vein of 7-week-old female non-obese diabetic-severe combined immuno-deficient (NOD-SCID)Il2rg^−/− (NSG) mice (The Jackson Laboratory) and tumour burden was assessed by bioluminescence imaging (BLI) using an IVIS Spectrum system (Caliper Life Sciences). […] After 30 days, blood counts were obtained (Hemavet 950 F, Drew Scientific) and spleen, femur and peripheral blood cells were collected and analysed by flow cytometry (LSR Fortessa, BD Biosciences) from three mice per group, having the highest, lowest and median BLI value. […] Survival was measured as the time from therapy initiation until moribund state. […]
The MV4;11 xenograft model was performed as previously described (Etchin, J. et al. Antileukemic activity of nuclear export inhibitors that spare normal hematopoietic cells. Leukemia 27, 66-74 (2013)). Two-million MV4;11-mCLP cells were injected into the tail vein of 7-week-old female non-obese diabetic-severe combined immuno-deficient (NOD-SCID)Il2rg-^−/− (NSG) mice (The Jackson Laboratory) and tumour burden was assessed by bioluminescence imaging (BLI) using an IVIS Spectrum system (Caliper Life Sciences). […]

Test [3] deals with SKNO-1. The experiment in a line: Cellular proliferation assay (CellTiter-Glo). To be noted: Homo sapiens.
Protocol: All suspension cells were plated (96-well) in triplicate at 5,000-30,000 cells per well for testing (n=3). Viable cell number was estimated after 3, 7 and 10 days by counting viable cells from one vehicle well, generating a cell dilution series, transferring 20 ml per well in duplicate to a 384-well plate, and performing a linear regression to CellTiter-Glo (Promega) response (SPECTRAmax M3, Molecular Devices). Cells from all wells were also fourfold diluted in media and transferred in duplicate for CellTiter-Glo measurement. On days 3 and 7, an equal volume for all wells was split-back with fresh media and compound, such that the resulting cell density for the vehicle well matched the initial seeding density. For days 7 and 10, estimated cell number represents the split-adjusted theoretical cell number. […] For growth assays with inhibitors, n=3 for each concentration with two independent experiments.
For test [4], the system named is RS4;11. Put plainly: Cellular proliferation assay (CellTiter-Glo). To be noted: Homo sapiens. Background: Cellular ATP, detected with luciferase, serves as a proxy for viable cell number.
Protocol: All suspension cells were plated (96-well) in triplicate at 5,000-30,000 cells per well for testing (n=3). Viable cell number was estimated after 3, 7 and 10 days by counting viable cells from one vehicle well, generating a cell dilution series, transferring 20 ml per well in duplicate to a 384-well plate, and performing a linear regression to CellTiter-Glo (Promega) response (SPECTRAmax M3, Molecular Devices). Cells from all wells were also fourfold diluted in media and transferred in duplicate for CellTiter-Glo measurement. On days 3 and 7, an equal volume for all wells was split-back with fresh media and compound, such that the resulting cell density for the vehicle well matched the initial seeding density. For days 7 and 10, estimated cell number represents the split-adjusted theoretical cell number. HCT116 were plated (96-well) in triplicate at 250 cells per well. Cells were incubated in the presence of vehicle, 1 μM paclitaxel, or compound. On day 7, CellTiter-Blue (Promega) response was measured and values were normalized to vehicle (100% growth) and paclitaxel (0% growth). For growth assays with inhibitors, n=3 for each concentration with two independent experiments.
Test [5] deals with SK-N-F1. Put plainly: Soft agar growth assay (Alamar Blue). To be noted: Neuroblastoma, 100 nM cortistatin A. Background: The colour change of resazurin is a common sign of viable cells or microbes.
Protocol: For the 62 cell lines 96 well suspension cell culture plates were prepared. 100 μL of the soft agar bottom layer (0.6% final concentration in complete medium) was poured and left to solidify. 50 μL of the soft agar top layer (0.4% final concentration) containing the corresponding cells and cell number were then added on top, solidified and incubated at 37° C., 10% CO2. After the soft agar had solidified, the test items were added at indicated final concentrations into the inner wells of the plate. Subsequently, the assay was incubated in cell culture incubators for 8 to 14 days. Finally, the assay was developed using Alamar Blue and upon 1-5 h of incubation at 37° C. fluorescence intensity was determined (excitation: 560 nm; emission: 590 nm). As low control, cells were treated with 1E-05M Staurosporine (6fold values). As high control, cells were treated with 0.1% DMSO (solvent control, 6 fold values).
Raw data were converted into percent soft agar growth relative to high controls (solvent 0.1% DMSO) and low controls (1E-05M Staurosporine), which were set to 100% and 0%, respectively.
Test [6] has as its target T1, CDK8 W105M (Homo sapiens, UniProt P49336, W105M).
T1 construct: host or cells: MOLM-14 cells, lentiviral transduction (pLVX-EF1alpha-IRES vectors)
Put plainly: Drug resistant allele growth assay in MOLM-14 cells. It is filed as cell-based. To be noted: expression of CDK8 W105M; FIG. 9.
Protocol: 5′-Flag-tagged CDK8 and CDK19 were cloned from pBabe.puro.CDK8.flag (Addgene 19758) and F-CDK8L (Addgene 24762) into pLVX-EF1alpha-IRES-mCherry and pLVX-EF1alpha-IRES-ZsGreen (Clontech) and transformed into E. coli (One Shot Stbl3, Invitrogen). Point mutations were introduced by whole-plasmid PCR (QuikChange II XL Site-Directed Mutagenesis Kit, Agilent). pLVX lentiviral vectors were co-transfected with psPASx and pMD2.G (Addgene) in 293T cells. After 48 h, viral supernatants were collected and passed through a 0.45 m filter (Millipore). For transductions, 24-well plates were coated with 500 μl of 20 μg ml RetroNectin (Clontech) at 4° C. overnight, blocked with 2% BSA for 30 min, washed with PBS, and 300-500 μl of viral supernatant was added. The plates were centrifuged (2,000 g, 1.5 h) and then set in an incubator. After 2 h, viral supernatant was removed and 500 μl per well of 200,000 cells per ml was added. After 1-3 days, the cells were expanded and isolated by FACS.

T1 sequence (P49336 whole entry W105M): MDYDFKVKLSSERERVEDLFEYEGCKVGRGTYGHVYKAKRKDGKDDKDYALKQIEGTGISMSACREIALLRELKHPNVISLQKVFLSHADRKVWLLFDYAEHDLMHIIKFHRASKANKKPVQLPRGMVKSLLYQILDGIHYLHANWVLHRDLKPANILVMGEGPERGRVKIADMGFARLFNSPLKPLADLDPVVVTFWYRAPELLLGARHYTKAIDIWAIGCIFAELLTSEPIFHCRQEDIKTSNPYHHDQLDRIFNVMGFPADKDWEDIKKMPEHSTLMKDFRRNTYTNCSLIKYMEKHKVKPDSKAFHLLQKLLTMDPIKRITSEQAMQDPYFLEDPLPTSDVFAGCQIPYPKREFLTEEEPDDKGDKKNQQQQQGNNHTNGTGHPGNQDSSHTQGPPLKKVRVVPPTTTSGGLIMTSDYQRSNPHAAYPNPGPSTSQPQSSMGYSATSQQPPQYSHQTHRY
T1 sequence (P24863 whole entry partner): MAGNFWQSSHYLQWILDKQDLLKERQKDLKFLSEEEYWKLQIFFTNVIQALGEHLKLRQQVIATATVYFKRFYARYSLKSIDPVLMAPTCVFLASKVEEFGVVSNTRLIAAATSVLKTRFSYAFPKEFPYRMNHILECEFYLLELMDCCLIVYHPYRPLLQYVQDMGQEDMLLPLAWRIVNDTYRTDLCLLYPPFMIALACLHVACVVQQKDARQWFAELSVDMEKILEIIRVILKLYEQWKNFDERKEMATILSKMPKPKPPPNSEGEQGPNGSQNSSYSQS

With `CN(C)[C@H]1C[C@@]23CC[C@@]4(O2)C(=CC[C@]2(C)[C@@H](c5ccc6ccncc6c5)CC[C@H]24)C=C3[C@@H](O)[C@@H]1O` [Cortistatin A, cortistatin A], the NES amounted to 2.03 in test [1] (signature: GATA1/GATA2/RunX1/FLI1/SCL Binding Sites in Mks) and 2.27 in test [1] (signature: GATA1/SCL Binding Sites in Mks). Also, the “leukemia cells in the lungs (haematoxylin and eosin staining)” value in test [2] (MV4;11 AML mice, Day 30, FIG. 10) is given as “fewer leukemia cells in the lungs”. Also, the spleen weight entry in test [2] (female NSG mice, once daily IP for 15 days, measured 37 days after injection of cells, FIG. 6) was “prevents spleen weight increase”. Besides, the GI50 in test [3] (SKNO-1) was 1 nM; in test [3] (SKNO-1, 240 h), 1 nM; in test [4], 3 nM. For the same compound, the “% growth rel. to vehicle” value in test [5] came out at 30%. Besides, the “growth of MOLM-14 cells expressing drug resistant allele” value in test [6] is reported as “able to proliferate in the presence of cortistatin A”.
